We go through three compounds from patent EP0168965B1, “4(5)-substituted imidazoles” (ELI LILLY AND COMPANY, priority 1984, dated 1986).

The test system of test [1] is synthesis of estrogens. Description: Estrogen synthesis inhibition in rats (uterine weight and ovarian steroid concentrations). It counts as in vivo, Immature female Wistar rats. The settings on record: for Mean Steroid Concentration estradiol / Mean Steroid Concentration estriol / Mean Steroid Concentration estrone: ovaries. How it is done: Immature female Wistar rats (45-55 grams) were divided into control and test groups of 4-5 animals each. Test compounds were administered for seven days daily by gavage in corn oil. Control animals received corn oil without the test compound. Beginning on the fourth day of the test, all animals treated with the test compound and one half of the control animals were given a subcutaneous injection of 1.0 mg of testosterone propionate in corn oil. The remaining control animals received only an equivalent volume of corn oil. On the seventh day of the test, rats treated with testosterone propionate were injected subcutaneously with 100 µCi of [^3H]-testosterone in 50 pl of 3:1 (v/v) saline-ethanol.
After two hours, the animals were killed by decapitation. Uteri were isolated, trimmed of extraneous connective tissue, and weighed. […] In the control animals treated with testosterone propionate, estrogens produced by aromatization stimulated the uterus resulting in an increase in weight.
Ovaries from rats treated with [^3H]-testosterone were excised, cleaned of extraneous tissue, and homogenized in 2.5 ml of a 1.0 mM potassium phosphate buffer containing 3.0 mM MgC12-6H20, 320 mM sucrose, and 0.25% Triton X-100 (polyethylene glycol p-isooctyl phenyl ether, Rohm and Haas) at pH 6.5. The ovarian steroids were extracted with 1.5 ml of 9:1 (v/v) toluene/ethanol to which had been added 25 to 100 mcg each of unlabelled estradiol, estriol, and estrone, and approximately 1000 dpm of [^14C]-estradiol. The samples were vortexed, centrifuged at 500 x g for 10 minutes, and the organic phase was transferred to a conical vial. Two additional extractions were performed on the residue in the same way. The pooled organic extracts were evaporated for subsequent thin-layer chromatography.
Ovarian proteins were precipitated by the addition of 5.0 ml of ethanol to the remaining aqueous phase. After an overnight incubation at 4°C, the samples were centrifuged at 1500 x g for 10 minutes. The supernatant was discarded and the pellet was dissolved in 0.3 N potassium hydroxide. Protein was determined according to the method of Bradford, Analytical Biochemistry, 72, 248 (1976).
The organic residue from each above extraction was redissolved in 9:1 (v/v) dichioromethane/ methanol. The solution of each sample was applied to separate silica gel thin layer chromatography plates which contained a fluorescent indicator. The plates were developed in the first dimension with 160:38:1.5:0.5 (v/v/v/v) dichloromethane/ethyl acetate/methanol/acetic acid to within 3 cm of the top of the plate. After air-drying, the plate was developed in the second dimension with 180:19:1 (v/v/v) dichloromethane/methanol/ammonium hydroxide. The plate was air-dried and viewed under 254 nm UV light.
The visible spots were marked and the plates were sprayed with primulin (0.001% in 4:1 v/v acetone/ water) according to the method of Wright, J. Chromatography, '59, 220 (1971) which allowed for the identification of additional steroids under 365 nm UV light. The spots were scraped from the plate using a glass wool plugged Pasteur pipet attached to a vacuum line. The steroids were eluted directly into scintillation vials by the addition of 0.2 ml of dichloromethane followed by two washes each of 2.0 ml of methanol. The organic solvent was evaporated and 10.0 ml of scintillation fluid (Beckman Ready Solv-NA) was added to the vials. Samples were analyzed by liquid scintillation spectrometry. Corrections were made based on the recoveries of the [^14C]-steroid. Steroid concentrations are expressed as femtomoles per milligram protein.

In test [2] the target is T1, aromatase (Rattus norvegicus, UniProt P22443).
T1 construct: ovarian microsomes are obtained from rats treated with pregnant mares serum gonadotropin; from tissue; host or cells: rat ovarian microsomes (rats treated with pregnant mares serum gonadotropin)
T1 sequence (P22443 1-508): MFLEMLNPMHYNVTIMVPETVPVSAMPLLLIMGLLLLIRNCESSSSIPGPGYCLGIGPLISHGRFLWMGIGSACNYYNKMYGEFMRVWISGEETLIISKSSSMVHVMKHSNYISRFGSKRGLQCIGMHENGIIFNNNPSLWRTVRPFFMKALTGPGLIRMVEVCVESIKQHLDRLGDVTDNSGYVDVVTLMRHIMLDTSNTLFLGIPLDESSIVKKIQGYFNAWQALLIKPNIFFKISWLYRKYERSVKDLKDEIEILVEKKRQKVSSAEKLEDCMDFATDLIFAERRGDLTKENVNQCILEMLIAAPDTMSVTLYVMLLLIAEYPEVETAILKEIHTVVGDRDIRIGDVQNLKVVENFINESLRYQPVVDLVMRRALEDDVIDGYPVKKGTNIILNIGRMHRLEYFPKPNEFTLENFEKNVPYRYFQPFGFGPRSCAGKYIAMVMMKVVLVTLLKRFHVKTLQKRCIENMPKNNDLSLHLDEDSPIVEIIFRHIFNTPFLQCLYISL
Description: Aromatase inhibition in the rat ovarian microsome assay. It counts as biochemical. To be noted: read-out: EC50 (the source's name). The protocol: In this test system, ovarian microsomes are obtained from rats treated with pregnant mares serum gonadotropin. Test compounds are added to reaction vials containing 0.1 µM 4-androstene-3,17-dione, 100,000 dpm 1,2[^3H]-androstenedione, the microsomes and a NADPH generating system. The concentrations of the inhibitors tested ranged between 0.005 and 10 um.

[3] abbreviates: 1 mg/kg p.o. by gavage daily for seven days.
[4] abbreviates: 3 mg/kg p.o. by gavage daily for seven days.
[5] abbreviates: 10 mg/kg p.o. by gavage daily for seven days.
The mark [6] stands for this setting: 30 mg/kg p.o. by gavage daily for seven days.
[7] abbreviates: 100 mg/kg p.o. by gavage daily for seven days.

Where only a bound is given, the exact number is not on record here.

For `OC(c1ccc(Cl)cc1)(c1ccc(Cl)cc1)c1c[nH]cn1` [Example 3, a,a-bis(4-chlorophenyl)-4(5)-imidazolemethanol], the “Mean Steroid Concentration estradiol” value in test [1] (setting [3]) is recorded as 0.35 femtomoles per milligram of protein; in test [1] (setting [4]) it was 0.31 femtomoles per milligram of protein; in test [1] (setting [5]), 0.19^+ femtomoles per milligram of protein; in test [1] (setting [6]), 0.22 femtomoles per milligram of protein; in test [1] (setting [7]), 0.10^+ femtomoles per milligram of protein. For the same compound, the “Mean Steroid Concentration estriol” value in test [1] (setting [3]) is 0.132 femtomoles per milligram of protein; in test [1] (setting [4]), 0.383 femtomoles per milligram of protein; in test [1] (setting [5]), 0.218 femtomoles per milligram of protein; in test [1] (setting [6]) it was 0.391 femtomoles per milligram of protein; in test [1] (setting [7]), 0.534^+ femtomoles per milligram of protein. Also, the “Mean Steroid Concentration estrone” value is on record as 0.00 femtomoles per milligram of protein in test [1] (setting [3]); 0.05 femtomoles per milligram of protein in test [1] (setting [4]); 0.03 femtomoles per milligram of protein in test [1] (setting [5]); 0.07 femtomoles per milligram of protein in test [1] (setting [6]); 0.36^+ femtomoles per milligram of protein in test [1] (setting [7]). For the same compound, the “Mean Uterine Weight” value in test [1] (1 mg/kg p.o. by gavage daily for seven days, testosterone propionate-treated rats) is 214.2 mg. Further, the “Mean Uterine Weight (mg)” value in test [1] (3 mg/kg p.o. by gavage daily for seven days, testosterone propionate-treated rats) is recorded as 158.8^+ mg; in test [1] (10 mg/kg p.o. by gavage daily for seven days, testosterone propionate-treated rats) it was 131.2^+ mg; in test [1] (30 mg/kg p.o. by gavage daily for seven days, testosterone propionate-treated rats), 96.2^+ mg; in test [1] (100 mg/kg p.o. by gavage daily for seven days, testosterone propionate-treated rats), 79.5^+ mg.
Regarding `Fc1ccc(C(c2ccc(F)cc2)c2c[nH]cn2)cc1` [Example 1, 4(5)-[Bis(4-fluorophenyl)methyl]-1H-imidazole], the IC50 in test [2] was below 50 nM.
Still for that read-out and setting: under `Fc1ccc(C(c2ccc(Cl)cc2)c2c[nH]cn2)cc1` (stereo not shown) [Example 2, 4(5)-[(4-Chlorophenyl)(4-fluorophenyl)methyl]imidazole] stands below 50 nM.
